Calls of active or inactive are those of the source. The rule behind the calls is not given here.
What follows are molecules tested against Trace amine-associated receptor 1 (Homo sapiens) (UniProt Q96RJ0) (assay: agonism at human TAAR1, counter-screen – cell-based, fluorescence, MedChem round 2, counter-screen for TAAR1 antagonist project, SAR follow-up (AID 1053182)). Conditions: TAAR1-expressing cells, cAMP fluorescence agonist mode.
Sequence of Trace amine-associated receptor 1 (Homo sapiens) (Q96RJ0 whole entry, looked up, the tested form may be a part): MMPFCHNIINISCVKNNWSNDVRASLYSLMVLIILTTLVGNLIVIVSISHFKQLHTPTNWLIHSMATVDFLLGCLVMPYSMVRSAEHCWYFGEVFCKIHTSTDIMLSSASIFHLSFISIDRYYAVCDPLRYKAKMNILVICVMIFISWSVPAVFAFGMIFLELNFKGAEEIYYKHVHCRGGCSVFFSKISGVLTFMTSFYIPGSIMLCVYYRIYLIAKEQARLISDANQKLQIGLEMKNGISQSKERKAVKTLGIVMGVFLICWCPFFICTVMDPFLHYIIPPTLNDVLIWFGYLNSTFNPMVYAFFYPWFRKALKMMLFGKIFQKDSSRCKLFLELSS

SMILES | EC50
O=C(CCN1CCC(c2ccccc2)C1)c1ccccc1 (configuration not stated) | 100 nM
N#Cc1c(C(F)(F)F)cc(-c2ccc(Cl)cc2)nc1SCC(=O)N1CCCC1 | > 29900 nM (inactive)
COc1cc(C(=O)CCN2CCC(c3ccccc3)C2)cc(OC)c1OC (configuration not stated) | 122 nM
Cc1ccc(C(=O)CCN2CCC(c3ccccc3)C2)cc1 (configuration not stated) | 282 nM
CC(CN1CCCC1Cc1ccccc1)C(=O)c1ccc2c(c1)OCCO2 (configuration not stated) | 245 nM
N#Cc1c(C(F)(F)F)cc(-c2ccc(Cl)cc2)nc1SCC(=O)Nc1ncccn1 | > 29900 nM (inactive)
N#Cc1c(C(F)(F)F)cc(-c2ccc(Cl)cc2)nc1SCC(=O)N1CCCCCC1 | > 29900 nM (inactive)
